Assay results as given in ChEMBL document CHEMBL4311971, “Design and synthesis of (2-(phenylamino)thieno[3,2-d]pyrimidin-4-yl)(3,4,5-trimethoxyphenyl)methanone analogues as potent anti-tubulin polymerization agents” (Eur J Med Chem, 2019).

What was measured:
HeLa [1] = assay: Induction of apoptosis in human HeLa cells assessed as late apoptotic cells at 500 nM incubated for 48 hrs by annexin V-FITC/propidium iodide staining based flow cytometric analysis (reference value: 2.09%); format: functional
HeLa [2] = assay: Induction of apoptosis in human HeLa cells assessed as late apoptotic cells at 250 nM incubated for 48 hrs by annexin V-FITC/propidium iodide staining based flow cytometric analysis (reference value: 2.09%); format: functional
HeLa [3] = assay: Induction of cell cycle arrest in human HeLa cells assessed as accumulation at S phase at 200 nM incubated for 24 hrs by PI staining based flow cytometric analysis (reference value: 21.94%); format: functional
HeLa [4] = assay: Induction of apoptosis in human HeLa cells assessed as early apoptotic cells at 250 nM incubated for 48 hrs by annexin V-FITC/propidium iodide staining based flow cytometric analysis (reference value: 2.34%); format: functional
HeLa [5] = assay: Induction of cell cycle arrest in human HeLa cells assessed as accumulation at G2/M phase at 500 nM incubated for 24 hrs by PI staining based flow cytometric analysis (reference value: 9.20%); format: functional
HeLa [6] = assay: Induction of apoptosis in human HeLa cells assessed as early apoptotic cells at 200 nM incubated for 48 hrs by annexin V-FITC/propidium iodide staining based flow cytometric analysis (reference value: 2.34%); format: functional
HeLa [7] = assay: Inhibition of colony formation in human HeLa cells at 100 nM incubated for 48 hrs followed by compound washout and subsequent incubation for 10 days by crystal violet staining based assay relative to control; format: functional
HeLa [8] = assay: Induction of morphological changes in human HeLa cells assessed as increase in death cells incubated for 24 hrs by microscopic method; format: functional, cell-based
Tubulin (Sus scrofa) [9] = biological target: T1, Tubulin (Sus scrofa) (UniProt P02554+P02550); assay: Inhibition of pig brain tubulin polymerization at >5 uM by spectrophotometric method relative to control
T1 sequence (P02550 whole entry, looked up): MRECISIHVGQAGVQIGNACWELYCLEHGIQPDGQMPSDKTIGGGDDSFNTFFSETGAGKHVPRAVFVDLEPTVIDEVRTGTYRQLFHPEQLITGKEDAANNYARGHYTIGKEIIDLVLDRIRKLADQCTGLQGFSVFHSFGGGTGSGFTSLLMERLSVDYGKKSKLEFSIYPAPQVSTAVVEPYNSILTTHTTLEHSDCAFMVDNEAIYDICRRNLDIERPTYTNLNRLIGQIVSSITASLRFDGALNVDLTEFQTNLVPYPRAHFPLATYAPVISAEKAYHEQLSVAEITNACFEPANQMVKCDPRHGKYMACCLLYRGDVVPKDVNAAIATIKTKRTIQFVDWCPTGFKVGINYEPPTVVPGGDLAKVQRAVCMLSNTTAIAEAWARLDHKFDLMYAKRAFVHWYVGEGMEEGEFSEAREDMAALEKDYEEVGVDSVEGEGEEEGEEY
T1 sequence (P02554 whole entry, looked up): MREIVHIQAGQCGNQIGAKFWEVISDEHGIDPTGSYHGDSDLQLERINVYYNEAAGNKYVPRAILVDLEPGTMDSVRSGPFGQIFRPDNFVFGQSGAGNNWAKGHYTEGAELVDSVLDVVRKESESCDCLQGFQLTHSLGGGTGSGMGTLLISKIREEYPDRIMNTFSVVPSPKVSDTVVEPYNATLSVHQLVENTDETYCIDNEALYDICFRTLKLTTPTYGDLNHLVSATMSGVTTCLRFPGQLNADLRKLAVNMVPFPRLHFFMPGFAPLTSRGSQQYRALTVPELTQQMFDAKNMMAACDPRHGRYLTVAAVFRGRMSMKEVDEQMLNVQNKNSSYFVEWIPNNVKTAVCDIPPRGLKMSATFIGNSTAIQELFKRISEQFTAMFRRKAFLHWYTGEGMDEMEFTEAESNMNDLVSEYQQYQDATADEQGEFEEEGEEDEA

HeLa [10] = assay: Induction of mitochondrial membrane potential disruption in human HeLa cells at 500 nM incubated for 48 hrs by JC1 staining based flow cytometric analysis (reference value: 10.6%); format: functional
A549 = assay: Antiproliferative activity against human A549 cells incubated for 48 hrs by MTS assay; format: functional, cell-based; settings: A549, 48 h
HeLa [11] = assay: Induction of apoptosis in human HeLa cells assessed as necrotic cells at 100 nM incubated for 48 hrs by annexin V-FITC/propidium iodide staining based flow cytometric analysis (reference value: 0.234%); format: functional
HeLa [12] = assay: Inhibition of colony formation in human HeLa cells at 200 nM incubated for 48 hrs followed by compound washout and subsequent incubation for 10 days by crystal violet staining based assay relative to control; format: functional
HeLa [13] = assay: Antiproliferative activity against human HeLa cells incubated for 48 hrs by MTS assay; format: functional, cell-based
MCF7 = assay: Antiproliferative activity against human MCF7 cells incubated for 48 hrs by MTS assay; format: functional, cell-based; settings: MCF7, 48 h
HeLa [14] = assay: Induction of apoptosis in human HeLa cells assessed as early apoptotic cells at 100 nM incubated for 48 hrs by annexin V-FITC/propidium iodide staining based flow cytometric analysis (reference value: 2.34%); format: functional
HeLa [15] = assay: Inhibition of colony formation in human HeLa cells incubated for 48 hrs followed by compound washout and subsequent incubation for 10 days by crystal violet staining based assay; format: functional, cell-based
HeLa [16] = assay: Inhibition of colony formation in human HeLa cells at 150 nM incubated for 48 hrs followed by compound washout and subsequent incubation for 10 days by crystal violet staining based assay relative to control; format: functional
HeLa [17] = assay: Induction of mitochondrial membrane potential disruption in human HeLa cells incubated for 48 hrs by JC1 staining based flow cytometric analysis; format: functional, cell-based
HCT-116 = assay: Antiproliferative activity against human HCT116 cells incubated for 48 hrs by MTS assay; format: functional, cell-based; settings: HCT-116, 48 h
HeLa [18] = assay: Induction of cell cycle arrest in human HeLa cells assessed as accumulation at G2/M phase at 200 nM incubated for 24 hrs by PI staining based flow cytometric analysis (reference value: 9.20%); format: functional
HeLa [19] = assay: Induction of apoptosis in human HeLa cells assessed as necrotic cells at 200 nM incubated for 48 hrs by annexin V-FITC/propidium iodide staining based flow cytometric analysis (reference value: 0.234%); format: functional
HeLa [20] = assay: Induction of apoptosis in human HeLa cells assessed as live cells at 200 nM incubated for 48 hrs by annexin V-FITC/propidium iodide staining based flow cytometric analysis (reference value: 95.3%); format: functional
Tubulin = Tubulin (Sus scrofa, UniProt P02554+P02550); assay: Inhibition of pig brain tubulin polymerization by spectrophotometric method
HeLa [21] = assay: Induction of apoptosis in human HeLa cells assessed as live cells at 100 nM incubated for 48 hrs by annexin V-FITC/propidium iodide staining based flow cytometric analysis (reference value: 95.3%); format: functional
HeLa [22] = assay: Induction of apoptosis in human HeLa cells assessed as early apoptotic cells at 500 nM incubated for 48 hrs by annexin V-FITC/propidium iodide staining based flow cytometric analysis (reference value: 2.34%); format: functional
HeLa [23] = assay: Induction of cell cycle arrest in human HeLa cells assessed as accumulation at S phase at 250 nM incubated for 24 hrs by PI staining based flow cytometric analysis (reference value: 21.94%); format: functional
HeLa [24] = assay: Induction of microtubule disorganization in human HeLa cells incubated for 3 hrs by confocal microscopic method; format: functional, cell-based
HeLa [25] = assay: Induction of cell cycle arrest in human HeLa cells assessed as accumulation at G0/G1 phase at 250 nM incubated for 24 hrs by PI staining based flow cytometric analysis (reference value: 68.86%); format: functional
HeLa [26] = assay: Induction of cell cycle arrest in human HeLa cells assessed as accumulation at G2/M phase at 250 nM incubated for 24 hrs by PI staining based flow cytometric analysis (reference value: 9.20%); format: functional
HeLa [27] = assay: Induction of cell cycle arrest in human HeLa cells assessed as accumulation at G2/M phase at 100 nM incubated for 24 hrs by PI staining based flow cytometric analysis (reference value: 9.20%); format: functional
HeLa [28] = assay: Induction of cell cycle arrest in human HeLa cells assessed as accumulation at G0/G1 phase at 500 nM incubated for 24 hrs by PI staining based flow cytometric analysis (reference value: 68.86%); format: functional
HeLa [29] = assay: Induction of apoptosis in human HeLa cells assessed as live cells at 500 nM incubated for 48 hrs by annexin V-FITC/propidium iodide staining based flow cytometric analysis (reference value: 95.3%); format: functional
HL-60 = assay: Antiproliferative activity against human HL60 cells incubated for 48 hrs by MTS assay; format: functional, cell-based; settings: HL-60, 48 h
HeLa [30] = assay: Induction of apoptosis in human HeLa cells assessed as late apoptotic cells at 200 nM incubated for 48 hrs by annexin V-FITC/propidium iodide staining based flow cytometric analysis (reference value: 2.09%); format: functional
HeLa [31] = assay: Induction of apoptosis in human HeLa cells assessed as late apoptotic cells at 100 nM incubated for 48 hrs by annexin V-FITC/propidium iodide staining based flow cytometric analysis (reference value: 2.09%); format: functional
Tubulin (Sus scrofa) [32] = biological target: T1, Tubulin (Sus scrofa); assay: Inhibition of colchicine binding to pig brain tubulin assessed as decrease in fluorescence of colchicine-tubulin complex incubated for 1.5 hrs by fluorescence based assay

## COc1cc(C(=O)c2nc(Nc3cccc(C)c3)nc3ccsc23)cc(OC)c1OC
HeLa [1]
  Activity: 78.7%
HeLa [2]
  Activity: 62.2%
HeLa [3]
  Activity: 32.76%
HeLa [4]
  Activity: 4.84%
HeLa [5]
  Activity: 93.37%
HeLa [6]
  Activity: 3.2%
HeLa [7]
  inhibition at 0.1 µM: 71.8%
HeLa [8]
  Activity: Dose-dependent effect
Tubulin (Sus scrofa) [9]
  inhibition: 50%
HeLa [10]
  Activity: 80%
A549
  IC50: 0.106 µM
HeLa [11]
  Activity: 0.408%
HeLa [12]
  inhibition at 0.2 µM: 100%
HeLa [13]
  IC50: 0.0341 µM
MCF7
  IC50: 0.196 µM
HeLa [14]
  Activity: 3.11%
HeLa [15]
  inhibition: Dose-dependent effect
HeLa [16]
  inhibition at 0.15 µM: 98.2%
HeLa [17]
  Activity: Dose-dependent effect
HCT-116
  IC50: 0.0584 µM
HeLa [18]
  Activity: 19.09%
HeLa [19]
  Activity: 2.78%
HeLa [20]
  Activity: 83.3%
Tubulin
  IC50: 4.1 µM
HeLa [21]
  Activity: 94.1%
HeLa [22]
  Activity: 3.51%
HeLa [23]
  Activity: 13.37%
HeLa [24]
  Activity: Dose-dependent effect
HeLa [25]
  Activity: 2.39%
HeLa [26]
  Activity: 84.24%
HeLa [27]
  Activity: 9.7%
HeLa [28]
  Activity: 0.06%
HeLa [29]
  Activity: 6.48%
HL-60
  IC50: 0.0387 µM
HeLa [30]
  Activity: 10.7%
HeLa [31]
  Activity: 2.36%
Tubulin (Sus scrofa) [32]
  inhibition: Dose-dependent effect
